Source: US7786112B2, “Inhibitors of cyclin-dependent kinases, compositions and uses related thereto” (Agennix USA Inc., priority 2003, dated 2010)
One block for each molecule: values may come before it.

How the values were obtained:
HCT-116 = experiment: Calcein AM viability assay, HCT-116; format: cell-based; settings: Homo sapiens, HCT-116, non-protein adjusted, Table 6
Description: The potency of Cdk inhibitors, as measured by loss of cellular viability, was determined with the Calcein AM assay (Molecular Probes). Calcein AM is a substrate of intracellular esterases, which is cleaved only in viable cells to generate a fluorescent product that can be quantified with a fluorescent plate reader. The fluorescent signal is proportional to the number of viable cells, and thus loss of signal in response to the exposure of cells to Cdk inhibitors correlates with a loss of viability. This assay can distinguish cell cycle arrest, in which cells may still by viable, from loss of viability and is thus well suited for the evaluation of Cdk inhibitors. A compound that is a potent cytotoxic, may cause significant loss of cell viability in such assay.
Cellular IC50's were determined in the human colorectal carcinoma cell line, HCT-116, and the normal human fibroblast, IMR90. Protein adjusted IC50's were also determined in HCT-116.
HCT-116 or IMR90 cells were recovered from sub-confluent plates by trypsinization and 1,000 or 4,000 cells, respectively, were plated in 24-well dishes and incubated overnight at 37° C., 5% CO2. HCT-116 cells were cultured in RPMI-1640, 10% FCS, and IMR90 cells were cultured in Minimum Essential Medium-alpha, 10% FCS. After overnight incubation to allow adherence, the media was aspirated from each well and replaced with media containing a test compound at a concentration from 0 to 250 nM, spanning a total of 7 doses. The plates were returned to the incubator and cultured for an additional 72 hours (3 days). […] After 72-hours incubation with the test compound, the cells were washed twice with 1×PBS, taking special care to remove all residual buffer.
A 5 μM Calcein AM solution was prepared by dissolving a 50 μg aliquot of Calcein (Molecular Probes catalog # C3100) in 50 μl DMSO. After the Calcein had completely dissolved (10 minutes at room temperature), it was diluted into 10 ml PBS. Calcein/PBS (0.5 ml) was added to each well. The plates were incubated for 75 minutes at 37° C. (protected from light) and the fluorescent signal was read on a fluorescent plate reader (excitation 485/20 and emission 530/25).

[1] = target: protein kinase C (mixed isozymes from rat brain); experiment: Protein kinase C assay (Histone H1, TCA precipitation); format: biochemical; settings: Table 5; read-out: PKC IC50
Description: (§1) Enzymes: Cdc2/cyclin B was obtained from commercial sources. Cdk2/his-cyclin Eshort was expressed in Sf9 cells. Cdk2/cyclin A, cdk4/cyclin D1, and cdk6/cyclin D2 were expressed in Sf9 cells. Protein kinase A (catalytic subunit, from bovine heart) and protein kinase C (mixed isozymes from rat brain) were obtained from commercial sources.
Protein kinase C and protein kinase A were assayed using a TCA precipitation assay with Histone H1 as a substrate. For protein kinase A, the final assay contained 50 mM Tris, 10 mM MgCl2, 1 mM dithiothreitol, pH 7.5, 12 μM adenosine triphosphate, 10% (v/v) dimethylsulfoxide (from compounds), 20 μg Histone H1, 2 μCi [γ-^32P] adenosine triphosphate, 0.2 U protein kinase A in a 100 μL assay. A protein kinase C assay contained 50 mM Tris, 10 mM MgCl2, 1 mM dithiothreitol, 0.8 mM CaCl2, pH 7.5, 5 μM adenosine triphosphate, 10% (v/v) dimethylsulfoxide (from compounds), 20 μg Histone H1, 2 μCi [γ-^32P] adenosine triphosphate, 0.01 U protein kinase C in a 50 μL assay. The assays were started by the addition of enzyme, allowed to react for 10 min at 30° C., and stopped by adding 0.4 volumes of 237 mM disodium ethylenediamine tetraacetate, 105 mM adenosine triphosphate, pH 8.0. […] The filters were washed ten times with 25% (w/v) trichloroacetic acid, and the amount of incorporated [^32P]phosphate was determined by adding 100 μl Microscint and scintillation counting.

HCT-116 cells [2] = experiment: Cell cycle analysis with propidium iodide (FACS); format: cell-based, human; settings: HCT-116, PI FACS
Description: The percentage of cells in the G1, S and G2/M phases of the cell cycle was determined by staining DNA with propidium iodide and quantifying the number of cells with a 2N or 4N DNA complement by flow cytometry. Alterations in the distribution of cells across the cell cycle in response to exposure to the Cdk inhibitors was evaluated in this manner.
3 sets of HCT-116 cells (100,000 cells/set) were cultured in the presence of a test compound in T-25 flasks according to Table 1 below. Analysis was performed at 24, 48 and 72 hours. Adherent cells were collected by trypsinization, combined with floating cells in Falcon 12×75 flow cytometric tubes, and harvested by centrifugation. The media was decanted from the cell pellet, 100 μl of PI stain was added and the cells were incubated at 37° C. for 20-25 minutes. The cell count was preferably no greater than 2×10^6-4×10^6/ml. An equal volume (100 μl) of PI salt was then added to the cells, which were then incubated at 4° C. for 1-2 hours. The stained cells were analyzed on a Becton Dickinson FACScan flow cytometer. Samples were protected from light.

Cdk4/cyclin D1 = target: T1, Cdk4/cyclin D1 (Homo sapiens, UniProt P11802); experiment: Cdk4/cyclin D1 kinase assay (GST-Rb, glutathione-sepharose capture); format: biochemical; settings: Table 6
T1 construct: made in house; host or cells: Sf9 insect cells
Description: as §1
(§2) Substrates: Histone H1 was from commercial sources. GST-Rb is glutathione-S-transferase fused to the N-terminal of residues 379-928 of the Rb protein.
Cdk2/cyclin E, Cdk2/cyclin A, Cdk4/cyclin D1, and Cdk6/cyclin D2 activity was determined using a glutathione-sepharose capture assay. […] After washing the retained beads five time with phosphate-buffered saline containing 0.3% (w/v) Tween-20, the amount of ^33P incorporated was determined by scintillation counting after adding 100 μL scintillant. Relative activity was determined by dividing the amount of radioactivity incorporated in the presence of compound by the amount of radioactivity incorporated in a control experiment containing DMSO alone but no compound. The background radioactivity, determined in an experiment containing 50 mM disodium ethylenediamine tetraacetate in place of compound, was subtracted from all results before calculations.

Cdc2/cyclin B = target: T2, Cdc2/cyclin B (Homo sapiens, UniProt P06493); experiment: Cdc2/cyclin B kinase assay (Histone H1, TCA precipitation); format: biochemical; settings: Table 6
T2 construct: purchased
Description: as §1, §2
Assays: Cdc2/cyclinB activity was determined by measuring incorporation of radio-activity from adenosine [γ-^32P]triphosphate into Histone H1 using a TCA precipitation assay. Cdc2/cyclin B kinase and Histone H1 were obtained from commercial sources. […] The filter was washed ten times with 25% (w/v) trichloroacetic acid, and the amount of incorporated ^32P was determined by scintillation counting after adding 100 μL scintillant (Microscint 20, Packard Instruments). Relative activity was determined by dividing the amount of radioactivity incorporated in the presence of compound by the amount of radioactivity incorporated in a control experiment containing DMSO alone but no compound. The background radioactivity, determined in an experiment containing 50 mM EDTA in place of compound, was subtracted from all results before calculations. […]

HCT-116 cells [3] = experiment: Clonogenic survival assay; format: cell-based, human; settings: HCT-116 clonogenic time-course, at 100 nM
Description: This assay was used to determine the concentration of a compound that results irreversible loss of viability after a specified period of exposure. Essentially, cells are exposed to compound for a period of 1, 2 or 5 days, and are then transferred to compound-free growth medium. After continued incubation in the compound-free medium for a number of days, the number of colonies recovered is counted as an estimate of the number of surviving cells.
Media (RPMI-1640, 10% FCS, pen/strep) was pre-warmed to 37° C. in a water bath. Cells were incubated and grown at 37° C., 5% CO2. Cells were recovered by trypsinization from sub-confluent plates and counted using a hemocytometer. 1×10^4 cells were plated in 25 mls of media in a 15 cm tissue culture dish. 14 plates were set up for each test compound, and were incubated overnight at 37° C. The compound was diluted into media at 7 concentrations and the media on the cells was replaced with that containing the test compound. Two plates were set up for each concentration of the compound to be tested, as well as two control plates without compound. […] Colonies were stained with crystal violet solution (0.4% crystal violet, 20% ethanol) for 5 minutes, washed twice with distilled water, and counted.

T1 sequence (P11802 whole entry, species assumed): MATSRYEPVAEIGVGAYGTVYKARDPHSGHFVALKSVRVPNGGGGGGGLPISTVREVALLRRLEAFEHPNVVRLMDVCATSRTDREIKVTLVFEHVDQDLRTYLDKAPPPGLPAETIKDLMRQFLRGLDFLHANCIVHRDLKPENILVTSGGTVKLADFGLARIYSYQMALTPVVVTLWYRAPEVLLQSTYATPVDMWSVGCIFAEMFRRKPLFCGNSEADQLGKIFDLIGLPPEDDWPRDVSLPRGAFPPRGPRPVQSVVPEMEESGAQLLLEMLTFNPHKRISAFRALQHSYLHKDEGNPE
T1 sequence (P24385 whole entry partner, species assumed): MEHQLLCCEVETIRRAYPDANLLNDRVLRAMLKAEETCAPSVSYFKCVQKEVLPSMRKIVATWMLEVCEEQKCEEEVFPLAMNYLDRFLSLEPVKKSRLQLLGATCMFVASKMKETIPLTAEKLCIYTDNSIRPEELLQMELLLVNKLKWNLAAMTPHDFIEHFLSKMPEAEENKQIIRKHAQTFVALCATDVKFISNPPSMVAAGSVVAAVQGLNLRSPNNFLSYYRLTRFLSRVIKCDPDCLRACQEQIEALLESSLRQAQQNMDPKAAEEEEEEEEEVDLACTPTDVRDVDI
T2 sequence (P06493 whole entry, species assumed): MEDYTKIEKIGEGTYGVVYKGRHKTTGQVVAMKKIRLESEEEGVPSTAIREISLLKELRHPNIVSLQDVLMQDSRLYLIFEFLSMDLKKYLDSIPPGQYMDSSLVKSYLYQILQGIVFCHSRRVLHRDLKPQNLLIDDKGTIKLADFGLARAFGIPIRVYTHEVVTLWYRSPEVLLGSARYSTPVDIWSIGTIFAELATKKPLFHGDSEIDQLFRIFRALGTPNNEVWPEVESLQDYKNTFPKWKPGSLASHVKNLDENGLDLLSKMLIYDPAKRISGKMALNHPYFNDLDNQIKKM
T2 sequence (P14635 whole entry partner, species assumed): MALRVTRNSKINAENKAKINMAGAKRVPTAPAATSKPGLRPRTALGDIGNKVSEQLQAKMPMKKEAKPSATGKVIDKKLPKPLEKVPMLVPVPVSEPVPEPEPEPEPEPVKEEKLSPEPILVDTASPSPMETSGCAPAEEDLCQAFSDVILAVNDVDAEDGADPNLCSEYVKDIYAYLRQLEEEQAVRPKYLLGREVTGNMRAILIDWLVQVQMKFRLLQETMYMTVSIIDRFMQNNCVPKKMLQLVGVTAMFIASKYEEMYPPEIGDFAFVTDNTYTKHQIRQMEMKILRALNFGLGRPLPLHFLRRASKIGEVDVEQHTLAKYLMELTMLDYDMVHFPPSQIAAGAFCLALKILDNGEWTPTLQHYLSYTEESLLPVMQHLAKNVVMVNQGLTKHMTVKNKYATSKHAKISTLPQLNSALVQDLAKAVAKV

Structure (SMILES): CC(C)c1nn(-c2c(Cl)cccc2Cl)c2nc(Cc3ccc(OCCO)cc3)[nH]c(=O)c12 [Compound A59]
IC50 (HCT-116): < 100 nM

IC50 [1]: < 10000 nM
Structure (SMILES): CC(C)N1CCN(CCOc2ccc(-c3[nH]nc4c3C(=O)c3c(NC(=O)NN5CCOCC5)cccc3-4)cc2)CC1 [E]

Structure (SMILES): COc1ccc(Cc2nc3c(c(C(C)C)nn3-c3c(Cl)cccc3Cl)c(=O)[nH]2)cc1 [Compound A67]
IC50 (HCT-116): < 100 nM

Structure (SMILES): CC(C)c1nn(-c2c(Cl)cc(Cl)cc2Cl)c2nc(Cc3ccc(NS(=O)(=O)CCCN4CCCC4)cc3)[nH]c(=O)c12 [Compound A38]
IC50 (HCT-116): < 100 nM

Structure (SMILES): CC(C)c1nn(-c2c(Cl)cc(Cl)cc2Cl)c2nc(Cc3ccc(OCCO)cc3)[nH]c(=O)c12 [Compound A61]
IC50 (HCT-116): < 100 nM

Structure (SMILES): CC(C)N1CCN(C(=O)COc2ccc(-c3[nH]nc4c3C(=O)c3c(NC(=O)NN5CCOCC5)cccc3-4)cc2)CC1.Cl [Compound A37]
Effect on cell cycle distribution (HCT-116 cells [2]): terminally arrested in G1 and G2, with evidence of apoptosis and endo-reduplication

Structure (SMILES): CC(C)c1nn(-c2c(Cl)cccc2Cl)c2nc(Cc3ccc(OCCOC(=O)[C@@H](N)C(C)C)cc3)[nH]c(=O)c12 [Compound A60]
IC50 (Cdk4/cyclin D1): < 10000 nM
IC50 (Cdc2/cyclin B): < 1000 nM

Structure (SMILES): COCCN1CCN(Cc2ccc(-c3[nH]nc4c3C(=O)c3c(NC(=O)NN5CCOCC5)cccc3-4)cc2)CC1.Cl.Cl [Compound B16, N-[3-(4-{[4-(2-methoxyethyl)piperazinyl]methyl}phenyl)-4-oxoindeno[2,3-d]pyrazol-5-yl](morpholin-4-ylamino)carboxamide dihydrochloride]
Time within which IC50 is reached (HCT-116 cells [3]): 30 to 60 min
Effect on cell cycle distribution (HCT-116 cells [2]): Analogous results

Structure (SMILES): CC(C)c1nn(-c2c(Cl)cc(Cl)cc2Cl)c2nc(Cc3ccc(NS(=O)(=O)CCCN4CCN(C(C)C)CC4)cc3)[nH]c(=O)c12 [Compound A39]
IC50 (HCT-116): < 100 nM

IC50 [1]: > 10000 nM
Structure (SMILES): CC(C)c1nn(-c2c(Cl)cccc2Cl)c2nc(Cc3ccc(O)c(CN4CCN(C(C)C)CC4)c3)[nH]c(=O)c12 [Compound C]

Structure (SMILES): Cc1nc(Cc2nc3c(c(C(C)C)nn3-c3c(Cl)cccc3Cl)c(=O)[nH]2)cs1 [Compound A58]
IC50 (HCT-116): < 100 nM
